# Test results as given in the supplement of paper PMC10307832.
# What was measured:
# Experiment in all cases: relative viability (nuclei count vs DMSO), 5 days (fraction); higher = more cells survive
# DM3189 + Decitabine = compound: C1CN(CCN1)C2=CC=C(C=C2)C3=CN4C(=C(C=N4)C5=CC=NC6=CC=CC=C56)N=C3 [DM3189] + Nc1ncn([C@H]2C[C@H](O)[C@@H](CO)O2)c(=O)n1 [Decitabine] (partner 2 µM)
# Procedure, shortened: (§1)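 A single step with final 0.05% Triton X-100, 1% formaldehyde and 1 ug/ml Hoechst fixed the cells and stained nuclei 5 days after treatment. Lung cancer cell lines in 1536-well plates had been treated by pin tool the day after seeding with one drug alone or a fixed anchor-drug dose plus five library-drug doses (not always all listed) in √10 steps, and nuclei were counted on 4× images. Relative viability is the ratio of nuclei in treated wells to nuclei in vehicle wells, taken as the median of duplicate plates.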
# DM3189 + Tozasertib = compound: C1CN(CCN1)C2=CC=C(C=C2)C3=CN4C(=C(C=N4)C5=CC=NC6=CC=CC=C56)N=C3 [DM3189] + Cc1cc(Nc2cc(N3CCN(C)CC3)nc(Sc3ccc(NC(=O)C4CC4)cc3)n2)n[nH]1 [Tozasertib] (partner 0.1 µM)
# Procedure, shortened: as §1
# DM3189 + Vorinostat = compound: C1CN(CCN1)C2=CC=C(C=C2)C3=CN4C(=C(C=N4)C5=CC=NC6=CC=CC=C56)N=C3 [DM3189] + O=C(CCCCCCC(=O)Nc1ccccc1)NO [Vorinostat] (partner 1 µM)
# Procedure, shortened: as §1
# DM3189 + Foretinib = compound: C1CN(CCN1)C2=CC=C(C=C2)C3=CN4C(=C(C=N4)C5=CC=NC6=CC=CC=C56)N=C3 [DM3189] + COc1cc2c(Oc3ccc(NC(=O)C4(C(=O)Nc5ccc(F)cc5)CC4)cc3F)ccnc2cc1OCCCN1CCOCC1 [Foretinib] (partner 0.25 µM)
# Procedure, shortened: as §1
# DM3189 + Pemetrexed = compound: C1CN(CCN1)C2=CC=C(C=C2)C3=CN4C(=C(C=N4)C5=CC=NC6=CC=CC=C56)N=C3 [DM3189] + Nc1nc2[nH]cc(CCc3ccc(C(=O)N[C@@H](CCC(=O)O)C(=O)O)cc3)c2c(=O)[nH]1 [Pemetrexed] (partner 0.2 µM)
# Procedure, shortened: as §1
# DM3189 + Phenformin = compound: C1CN(CCN1)C2=CC=C(C=C2)C3=CN4C(=C(C=N4)C5=CC=NC6=CC=CC=C56)N=C3 [DM3189] + N=C(N)NC(=N)NCCc1ccccc1 [Phenformin] (partner 250 µM)
# Procedure, shortened: as §1
# DM3189 + Dasatinib = compound: C1CN(CCN1)C2=CC=C(C=C2)C3=CN4C(=C(C=N4)C5=CC=NC6=CC=CC=C56)N=C3 [DM3189] + Cc1nc(Nc2ncc(C(=O)Nc3c(C)cccc3Cl)s2)cc(N2CCN(CCO)CC2)n1 [Dasatinib] (partner 0.075 µM)
# Procedure, shortened: as §1
# DM3189 + Palbociclib = compound: C1CN(CCN1)C2=CC=C(C=C2)C3=CN4C(=C(C=N4)C5=CC=NC6=CC=CC=C56)N=C3 [DM3189] + CC(=O)c1c(C)c2cnc(Nc3ccc(N4CCNCC4)cn3)nc2n(C2CCCC2)c1=O [Palbociclib] (partner 0.5 µM)
# Procedure, shortened: as §1
# DM3189 + Olaparib = compound: C1CN(CCN1)C2=CC=C(C=C2)C3=CN4C(=C(C=N4)C5=CC=NC6=CC=CC=C56)N=C3 [DM3189] + O=C(c1cc(Cc2n[nH]c(=O)c3ccccc23)ccc1F)N1CCN(C(=O)C2CC2)CC1 [Olaparib] (partner 8 µM)
# Procedure, shortened: as §1
# DM3189 + Trametinib = compound: C1CN(CCN1)C2=CC=C(C=C2)C3=CN4C(=C(C=N4)C5=CC=NC6=CC=CC=C56)N=C3 [DM3189] + CC(=O)Nc1cccc(-n2c(=O)n(C3CC3)c(=O)c3c(Nc4ccc(I)cc4F)n(C)c(=O)c(C)c32)c1 [Trametinib] (partner 0.02 µM)
# Procedure, shortened: as §1
# DM3189 + AZD7762 = compound: C1CN(CCN1)C2=CC=C(C=C2)C3=CN4C(=C(C=N4)C5=CC=NC6=CC=CC=C56)N=C3 [DM3189] + NC(=O)Nc1cc(-c2cccc(F)c2)sc1C(=O)N[C@H]1CCCNC1 [AZD7762] (partner 0.2 µM)
# Procedure, shortened: as §1
# DM3189 + OSI-027 = compound: C1CN(CCN1)C2=CC=C(C=C2)C3=CN4C(=C(C=N4)C5=CC=NC6=CC=CC=C56)N=C3 [DM3189] + COc1cccc2cc(-c3nc([C@H]4CC[C@H](C(=O)O)CC4)n4ncnc(N)c34)[nH]c12 [OSI-027] (partner 0.5 µM)
# Procedure, shortened: as §1
# DM3189 + Luminespib = compound: C1CN(CCN1)C2=CC=C(C=C2)C3=CN4C(=C(C=N4)C5=CC=NC6=CC=CC=C56)N=C3 [DM3189] + CCNC(=O)c1noc(-c2cc(C(C)C)c(O)cc2O)c1-c1ccc(CN2CCOCC2)cc1 [Luminespib] (partner 0.01 µM)
# Procedure, shortened: as §1
# DM3189 = compound: C1CN(CCN1)C2=CC=C(C=C2)C3=CN4C(=C(C=N4)C5=CC=NC6=CC=CC=C56)N=C3 [DM3189]
# Procedure, shortened: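 Vehicle-anchored 1536-well plates of lung cancer cell lines, held overnight at 37 °C, were pinned with five library-drug doses (not always all listed) spaced by √10. No medium change followed over the next 5 days, after which the cells were fixed, permeabilised and Hoechst-stained together and imaged at 4×. Nuclei were counted with MetaXpress, and viability is treated-well nuclei over vehicle-well nuclei, taken as a median across plates. Plates passed with control CV below 25% and at least one doubling.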
cell line,measurement,setting,value
NCI-H2342,relative viability,DM3189 + Decitabine; first compound 0.08 µM,0.747
same,relative viability,DM3189 + Decitabine; first compound 0.253 µM,0.679
same,relative viability,DM3189 + Decitabine; first compound 0.8 µM,0.718
same,relative viability,DM3189 + Decitabine; first compound 2.53 µM,0.688
same,relative viability,DM3189 + Tozasertib; first compound 0.08 µM,0.599
same,relative viability,DM3189 + Tozasertib; first compound 0.253 µM,0.526
same,relative viability,DM3189 + Tozasertib; first compound 0.8 µM,0.541
same,relative viability,DM3189 + Tozasertib; first compound 2.53 µM,0.483
same,relative viability,DM3189 + Vorinostat; first compound 0.08 µM,0.702
same,relative viability,DM3189 + Vorinostat; first compound 0.253 µM,0.692
same,relative viability,DM3189 + Vorinostat; first compound 0.8 µM,0.843
same,relative viability,DM3189 + Vorinostat; first compound 2.53 µM,0.668
same,relative viability,DM3189 + Foretinib; first compound 0.08 µM,1.08
same,relative viability,DM3189 + Foretinib; first compound 0.253 µM,0.912
same,relative viability,DM3189 + Foretinib; first compound 0.8 µM,1.08
same,relative viability,DM3189 + Foretinib; first compound 2.53 µM,0.965
same,relative viability,DM3189 + Pemetrexed; first compound 0.08 µM,0.954
same,relative viability,DM3189 + Pemetrexed; first compound 0.253 µM,0.745
same,relative viability,DM3189 + Pemetrexed; first compound 0.8 µM,0.802
same,relative viability,DM3189 + Pemetrexed; first compound 2.53 µM,0.847
same,relative viability,DM3189 + Phenformin; first compound 0.08 µM,0.625
same,relative viability,DM3189 + Phenformin; first compound 0.253 µM,0.594
same,relative viability,DM3189 + Phenformin; first compound 0.8 µM,0.595
same,relative viability,DM3189 + Phenformin; first compound 2.53 µM,0.498
same,relative viability,DM3189 + Dasatinib; first compound 0.08 µM,0.291
same,relative viability,DM3189 + Dasatinib; first compound 0.253 µM,0.3
same,relative viability,DM3189 + Dasatinib; first compound 0.8 µM,0.299
same,relative viability,DM3189 + Dasatinib; first compound 2.53 µM,0.332
same,relative viability,DM3189 + Palbociclib; first compound 0.08 µM,0.509
same,relative viability,DM3189 + Palbociclib; first compound 0.253 µM,0.489
same,relative viability,DM3189 + Palbociclib; first compound 0.8 µM,0.532
same,relative viability,DM3189 + Palbociclib; first compound 2.53 µM,0.512
same,relative viability,DM3189 + Olaparib; first compound 0.08 µM,0.417
same,relative viability,DM3189 + Olaparib; first compound 0.253 µM,0.473
same,relative viability,DM3189 + Olaparib; first compound 0.8 µM,0.477
same,relative viability,DM3189 + Olaparib; first compound 2.53 µM,0.468
same,relative viability,DM3189 + Trametinib; first compound 0.08 µM,0.805
same,relative viability,DM3189 + Trametinib; first compound 0.253 µM,0.843
same,relative viability,DM3189 + Trametinib; first compound 0.8 µM,0.844
same,relative viability,DM3189 + Trametinib; first compound 2.53 µM,0.74
same,relative viability,DM3189 + AZD7762; first compound 0.08 µM,0.44
same,relative viability,DM3189 + AZD7762; first compound 0.253 µM,0.533
same,relative viability,DM3189 + AZD7762; first compound 0.8 µM,0.54
same,relative viability,DM3189 + AZD7762; first compound 2.53 µM,0.478
same,relative viability,DM3189 + OSI-027; first compound 0.08 µM,0.658
same,relative viability,DM3189 + OSI-027; first compound 0.253 µM,0.626
same,relative viability,DM3189 + OSI-027; first compound 0.8 µM,0.622
same,relative viability,DM3189 + OSI-027; first compound 2.53 µM,0.552
same,relative viability,DM3189 + Luminespib; first compound 0.08 µM,0.916
same,relative viability,DM3189 + Luminespib; first compound 0.253 µM,0.66
same,relative viability,DM3189 + Luminespib; first compound 0.8 µM,0.845
same,relative viability,DM3189 + Luminespib; first compound 2.53 µM,0.702
same,relative viability,DM3189; 0.08 µM,0.988
same,relative viability,DM3189; 0.253 µM,0.99
same,relative viability,DM3189; 0.8 µM,0.948
same,relative viability,DM3189; 2.53 µM,0.97
